# Laboratory results published in patent publication US20060057671A1 (priority 2004, published 2006).
# Where two headings read alike, the source gives them in different places.
# How the values were obtained:
# [1] = format: physicochemical
# [2] = format: physicochemical; remark: listed apart in the source
substance,measurement,setting,value
poly-L-lysine,absorbance plateau,[1]; pH 7,approximately 0.22
same,absorbance plateau,[1]; pH 11,approximately 0.12
same,CD minimum,[2]; pH 7,approximately 204 nm
same,CD minimum,[2]; pH 11,approximately 216 nm
